Source: patent US7491521B2 (priority 2004, dated 2009)
Values joined by “and” are separate entries in the source; they are usually repeats but may differ in a detail not shown here. Equal values may be shown once.

Experiments:
[1] = system: E. coli harboring pUD15; format: cell-based
[2] = system: E. coli harboring pUD15 and pUD16; format: cell-based

In the case of [Cl-].[Cl-].[Co+2] [CoC12, CoCl2], the “optical density of the culture at 600 nm” value [1] is reported as 2.808 and 2.6955 and 2.330 and the “optical density of the culture at 600 nm” value [2] is reported as 2.524 and 2.173 and 2.113.
